Values quoted from earlier work, collected in publication PMC10957545, “Anti-diabetic and anti-inflammatory bioactive hits from Coriaria intermedia Matsum. stem and Dracontomelon dao (Blanco) Merr. & Rolfe bark through bioassay-guided fractionation and liquid chromatography-tandem mass spectrometry” (Frontiers in Pharmacology, 2024).
Values after ≈ are worked out from the molar mass of the structure shown. Where two headings read alike, the source gives them in different places.

Legend:
[1] = tested on: lipopolysaccharide (LPS)-induced nitric oxide (NO), prostaglandin E2 (PGE2), and interleukin-6 (IL-6) production; design: method as in BenSaad et al., 2017; details: ref BenSaad et al., 2017
[2] = tested on: proinflammatory cytokines and mediators; cyclooxygenase-2 expression; design: method as in Zhao et al., 2008, as cited in Li et al. (2018); details: ref Zhao et al., 2008, as cited in Li et al. (2018)
[3] = tested on: streptozotocin-induced diabetic rats; design: method as in Nandini and Naik, 2019; details: treated orally, end of the study; ref Nandini and Naik, 2019
[4] = tested on: different cancer cell lines; design: method as in Li et al., 2018; details: both in vitro and in vivo; ref Li et al., 2018
[5] = tested on: spike receptor binding domain (spike-RBD) of SARS-CoV-2 virus / human angiotensin-converting enzyme 2 (hACE2); design: method as in Yang et al., 2021; details: dose-dependent manner; ref Yang et al., 2021
[6] = tested on: mice fed with a high fat diet (HFD); design: method as in Liao et al., 2022; details: ref Liao et al., 2022
[7] = tested on: ovalbumin-induced asthmatic mice; design: method as in Jin and Yi, 2023; details: via the AMP-activated protein kinase pathway; ref Jin and Yi, 2023
[8] = tested on: advanced glycation end products formation; design: method as in Jung et al., 2012; details: ref Jung et al., 2012; read-out: inhibition of advanced glycation end products formation, IC50
maltase = tested on: maltase; design: method as in Kato et al., 2008; details: at a concentration of 400 µM; ref Kato et al., 2008
α-amylase = tested on: α-amylase; design: method as in Kato et al., 2008; details: at a concentration of 400 µM; ref Kato et al., 2008
sucrase = tested on: sucrase; design: method as in Kato et al., 2008; details: at a concentration of 400 µM; ref Kato et al., 2008
[9] = tested on: LPS-induced nuclear factor kappa B (NF-κB) activation; design: method as in Oh et al., 2010; details: ref Oh et al., 2010
[10] = tested on: p38, ERK, and PI 3-kinase/Akt and ROS accumulation; design: method as in Moon et al., 2018; details: ref Moon et al., 2018
colon inflammation = tested on: colon inflammation; design: method as in Guri et al., 2011; details: abscisic acid intake; ref Guri et al., 2011
neuroinflammation = tested on: neuroinflammation; design: method as in Jeon et al., 2020; details: abscisic acid intake; ref Jeon et al., 2020
beta pancreatic cells = tested on: beta pancreatic cells; design: method as in Xu et al., 2018; details: ref Xu et al., 2018
glucose uptake = tested on: glucose uptake; design: method as in Xu et al., 2018; details: ref Xu et al., 2018
[11] = isolated from Terminalia macroptera leaves, ref Pham et al., 2014

O=c1oc2c(O)c(O)cc3c(=O)oc4c(O)c(O)cc1c4c23 [Compound 1, ellagic acid]
IC50 AGLUC (α-glucosidase (AGLUC); previously reported, ref You et al., 2012): 2.18 [You et al. (2012)] µg/mL | effect on LPS-induced NO, PGE2 and IL-6 production [1]: inhibition

O=C(O[C@@H]1O[C@@H]2COC(=O)c3cc(O)c(O)c(O)c3-c3c(cc(O)c(O)c3O)C(=O)O[C@H]([C@H]1O)[C@@H]2O)c1cc(O)c(O)c(O)c1 [Compound 2, corilagin]
effect on cyclooxygenase-2 expression ([2]; protein and gene level): reduce | effect on production of proinflammatory cytokines and mediators [2]: significantly reduce | fasting blood glucose levels compared to diabetic control rats [3]: reduced | toxic effects on normal cells or tissues (normal cells or tissues): almost no toxic effects | IC50 (α-glucosidase (AGLUC); [11]): 2.58 ± 0.08 µM | antitumor activities [4]: exhibit antitumor activities | binding of spike-RBD to hACE2 [5]: inhibit | glucose intolerance and insulin resistance ([6]; HFD-fed mice): improve | plasma lipid concentrations ([6]; HFD-fed mice): improved | HFD-induced accumulation of fat in the liver and liver injury [6]: reduce | IC50 (15-lipoxygenase-1 (LOX); [11]): 41 ± 4 µM | IC50 LOX (15-lipoxygenase-1 (LOX); µM value given in µg/mL, ref Pham et al., 2014): 26.01 ± 2.5 [Pham et al. (2014)] µg/mL | airway inflammation and collagen deposition [7]: reduce

COc1cc2oc(=O)ccc2cc1O [Compound 4, isoscopoletin]
IC50 [8]: 18.8 ± 0.5 µM | % inhibition of maltase (maltase): 32.2% | % inhibition of α-amylase (α-amylase): 0.2% | % inhibition of sucrase (sucrase): 20.9% | IC50 (15-lipoxygenase-1 (LOX); ref Deng et al., 2007): 15.1 µM | IC50 LOX (15-lipoxygenase-1 (LOX); µM value given in µg/mL, ref Deng et al., 2007): 2.902 [Deng et al. (2007)] µg/mL

CCCCCCCC/C=C\CCCCCCCC(N)=O [Compound 6, oleamide]
effect on LPS-induced NF-κB activation [9]: inhibition | IC50 AGLUC (α-glucosidase (AGLUC); ref Fang et al., 2022): 30.69 ± 1.47 [Fang et al. (2022)] µg/mL | effect on p38, ERK, and PI 3-kinase/Akt and ROS accumulation [10]: suppression

CC1=CC(=O)CC(C)(C)[C@@]1(O)/C=C/C(C)=C\C(=O)O [Compound 9, abscisic acid]
effect on colon inflammation (colon inflammation): reduces | effect on neuroinflammation (neuroinflammation): reduces | effect on insulin production in beta pancreatic cells (beta pancreatic cells): can stimulate | effect on glucose uptake in vitro (glucose uptake): regulates

Oc1cccc(O)c1O [Compound 14, pyrogallol]
IC50 LOX (15-lipoxygenase-1 (LOX); mM value given in µg/mL, ref Yasumoto et al. (1970)): 1.097 × 10^3 [Yasumoto et al. (1970)] µg/mL | IC50 (15-lipoxygenase-1 (LOX); ref Yasumoto, Yamamoto, and Mitsuda, 1970): 8700 µM

O=c1c(O[C@@H]2O[C@H](CO)[C@H](O)[C@H](O)[C@H]2O)c(-c2ccc(O)c(O)c2)oc2cc(O)cc(O)c12 [hyperin, reference compound]
IC50 AGLUC (α-glucosidase (AGLUC); ref Zhang et al., 2013): 19.26 µg/mL (≈ 41.5 µM)
